Reference: ChEMBL document CHEMBL1806452, “New salicylamide and sulfonamide derivatives of quinoxaline 1,4-di-N-oxide with antileishmanial and antimalarial activities” (Bioorg Med Chem Lett, 2011)

Experiments:
Plasmodium falciparum [1] = assay: Antiplasmodial activity against chloroquine-resistant Plasmodium falciparum FCR-3 infected in human erythrocytes assessed as inhibition of [3H]hypoxanthine uptake after 48 hrs; assay type: functional, organism-based
Plasmodium falciparum [2] = assay: Ratio of chloroquine IC50 to compound IC50 for chloroquine-resistant Plasmodium falciparum FCR-3 infected in human erythrocytes; assay type: functional
Leishmania amazonensis [3] = assay: Leishmanicidal activity against axenic amastigotes of Leishmania amazonensis by MTT assay; assay type: functional, organism-based
Leishmania amazonensis [4] = assay: Ratio of amphotericin B IC50 to compound IC50 for axenic amastigotes of Leishmania amazonensis; assay type: functional
[5] = Cytotoxicity against mouse peritoneal macrophages after 48 hrs by trypan blue exclusion method; assay type: cell-based, Peritoneal macrophage cell
[6] = Selectivity index, ratio of CC50 for mouse peritoneal macrophages to IC50 for axenic amastigotes of Leishmania amazonensis; assay type: functional

Row | Compound | IC50 (Plasmodium falciparum [1]) [µM] | Ratio IC50 (Plasmodium falciparum [2]) | IC50 (Leishmania amazonensis [3]) [µM] | Ratio IC50 (Leishmania amazonensis [4]) | CC50 at 48 h [5] [µM] | Ratio CC50/IC50 [6]
1 | CC(=O)Oc1ccccc1C(=O)Nc1c(C#N)[n+]([O-])c2cc(F)c(F)cc2[n+]1[O-] | 36 | 120 | 14.8 | 74 | 10.5 | 0.7
2 | N#Cc1c(NS(=O)(=O)c2ccccc2[N+](=O)[O-])[n+]([O-])c2ccc(Cl)cc2[n+]1[O-] | 17.4 | 58 | 3.1 | 15.5 | 6.8 | 2.2
3 | COc1ccc2c(c1)[n+]([O-])c(C#N)c(NC(=O)c1ccccc1OC(C)=O)[n+]2[O-] | 27 | 90 | 42.4 | 212 |  | 
4 | Cc1cc2c(cc1C)[n+]([O-])c(NS(=O)(=O)c1ccc3ccccc3c1)c(C#N)[n+]2[O-] | > 23.8 | >79 | > 100 | >100 |  | 
5 | N#Cc1c(NS(=O)(=O)c2ccc([N+](=O)[O-])cc2)[n+]([O-])c2cc(Cl)c(Cl)cc2[n+]1[O-] | 18.7 | 62 | 15.9 | 79.5 | 89.1 | 5.6
6 | Cc1ccc2c(c1)[n+]([O-])c(C#N)c(NS(=O)(=O)c1ccc3ccccc3c1)[n+]2[O-] | > 24.6 | >82 | 16.3 | 81.5 | > 246 | >15.1
7 | N#Cc1c(NS(=O)(=O)c2ccc([N+](=O)[O-])cc2)[n+]([O-])c2ccc(Cl)cc2[n+]1[O-] | > 23.7 | >79 | 2.1 | 10.5 | 7.9 | 3.8
8 | CC(=O)Oc1ccccc1C(=O)Nc1c(C#N)[n+]([O-])c2cc(C)c(C)cc2[n+]1[O-] | 59.4 | 198 | 17.6 | 88 | 12.5 | 0.7
9 | N#Cc1c(NS(=O)(=O)c2ccc3ccccc3c2)[n+]([O-])c2ccc(Cl)cc2[n+]1[O-] | > 23.4 | >78 | 20 | 100 | 88.6 | 4.4
10 | CC(=O)Oc1ccccc1C(=O)Nc1c(C#N)[n+]([O-])c2ccccc2[n+]1[O-] | 41.4 | 138 | 112 | 559 |  | 
11 | C[C@@H]1[C@H](O)[C@@H](C)/C=C/C=C/C=C/C=C/C=C/C=C/C=C/[C@H](O[C@@H]2O[C@H](C)[C@@H](O)[C@H](N)[C@@H]2O)C[C@@H]2O[C@](O)(C[C@@H](O)C[C@@H](O)[C@H](O)CC[C@@H](O)C[C@@H](O)CC(=O)O[C@H]1C)C[C@H](O)[C@H]2C(=O)O [AMPHOTERICIN B] |  |  |  | 1 | 4.4 | 
12 | N#Cc1c(NS(=O)(=O)c2ccc([N+](=O)[O-])cc2)[n+]([O-])c2ccccc2[n+]1[O-] | 20 | 67 | 86.3 | 430 |  | 
13 | CC(=O)Oc1ccccc1C(=O)Nc1c(C#N)[n+]([O-])c2cc(C)ccc2[n+]1[O-] | 52.8 | 176 | 18.8 | 94 | 21.7 | 1.1
14 | CC(=O)Oc1ccccc1C(=O)Nc1c(C#N)[n+]([O-])c2cc(F)ccc2[n+]1[O-] | 7.4 | 25 | 7.3 | 36.5 | 13.6 | 1.8
15 | CC(=O)Oc1ccccc1C(=O)Nc1c(C#N)[n+]([O-])c2cc(Cl)ccc2[n+]1[O-] | 10.8 | 36 | 33.6 | 168 |  | 
16 | CCN(CC)CCCC(C)Nc1ccnc2cc(Cl)ccc12 (stereo not drawn) [CHLOROQUINE] |  |  | 20 |  | 88.6 | 
